Data published in ChEMBL document CHEMBL3885881, “DrugMatrix”.
“And” between values parts separate entries of the source, which are not always exact repeats. Equal entries are not always repeated.

Species on record: Rattus norvegicus
Assay: DrugMatrix - Regimen: Daily Repeat
Assay type: toxicity, organism-based, Sprague-Dawley
Set-up: regimen Daily Repeat, gender Male, age 6-8 weeks
Settings: in vivo, ip, route intraperitoneal, vehicle 100 % SALINE; for ABSOLUTE BASOPHIL / ABSOLUTE EOSINOPHIL / ABSOLUTE LYMPHOCYTE / ABSOLUTE MONOCYTE / ABSOLUTE SEGMENTED NEUTROPHIL / BASOPHIL / EOSINOPHIL / ERYTHROCYTE COUNT / HEMATOCRIT / HEMOGLOBIN / LEUKOCYTE COUNT / LYMPHOCYTE / MEAN CORPUSCULAR HEMOGLOBIN / MEAN CORPUSCULAR HEMOGLOBIN CONCENTRATION / MEAN CORPUSCULAR VOLUME / MONOCYTE / NEUTROPHIL / PLATELET COUNT: tissue Blood
[1] = 0 mg/kg, 120 h, dose level Control, time 5 day
[2] = 0 mg/kg, 120 h, tissue Plasma, dose level Control, time 5 day
[3] = 0 mg/kg, […], dose level Control, time 14 day
[4] = 0 mg/kg, […], dose level Control, time 28 day
[5] = 0 mg/kg, […], tissue Plasma, dose level Control, time 14 day
[6] = 0 mg/kg, […], tissue Plasma, dose level Control, time 28 day
[7] = 2 mg/kg, 120 h, dose level High, time 5 day

LEAD (II) ACETATE
ABSOLUTE BASOPHIL [1]: 32 cells/µL
ABSOLUTE EOSINOPHIL [1]: 110 cells/µL
ABSOLUTE LYMPHOCYTE [1]: 6630 cells/µL
ABSOLUTE MONOCYTE [1]: 140 cells/µL
ABSOLUTE SEGMENTED NEUTROPHIL [1]: 1170 cells/µL
BASOPHIL [1]: 0.38% and 0.35%
EOSINOPHIL [1]: 1.28% and 0.62%
ERYTHROCYTE COUNT [1]: 7.45 x10E6/uL and 7.26 x10E6/uL
HEMATOCRIT [1]: 45.74% and 47.97%
HEMOGLOBIN [1]: 14.72 G/DL and 15.38 G/DL
LEUKOCYTE COUNT [1]: 8.11 x10E3/uL and 8.68 x10E3/uL
LYMPHOCYTE [1]: 81.3% and 86.77%
MEAN CORPUSCULAR HEMOGLOBIN [1]: 19.76 pg and 21.18 pg
MEAN CORPUSCULAR HEMOGLOBIN CONCENTRATION [1]: 32.16 G/DL and 32.05 G/DL
MEAN CORPUSCULAR VOLUME [1]: 61.38 fL and 66.15 fL
MONOCYTE [1]: 1.76% and 1.57%
NEUTROPHIL [1]: 14.9% and 9.53%
PLATELET COUNT [1]: 1322.4 x10E3/uL and 1786 x10E3/uL
ALANINE AMINOTRANSFERASE [2]: 25.8 u/L and 20.5 u/L
ALBUMIN [2]: 3.64 G/DL and 4.35 G/DL
ALKALINE PHOSPHATASE [2]: 300 u/L
ASPARTATE AMINOTRANSFERASE [2]: 81.4 u/L and 86.75 u/L
BLOOD UREA NITROGEN [2]: 14.4 mg/dL and 17 mg/dL
CARBON DIOXIDE [2]: 29 mmol/L
CHOLESTEROL [2]: 69.2 mg/dL and 51.25 mg/dL
CREATINE PHOSPHOKINASE [2]: 303.2 u/L and 384.75 u/L
CREATININE [2]: 0.56 mg/dL and 0.47 mg/dL
GLUCOSE [2]: 125.4 mg/dL and 128.75 mg/dL
LACTATE DEHYDROGENASE [2]: 105.4 u/L and 145 u/L
LIPASE [2]: 22.4 u/L and 13.25 u/L
PHOSPHORUS [2]: 11.8 mg/dL
POTASSIUM [2]: 5.52 MEQ/L and 6.58 MEQ/L
SODIUM [2]: 147 MEQ/L and 151 MEQ/L
TOTAL BILIRUBIN [2]: 0.2 mg/dL and 0.33 mg/dL
TOTAL PROTEIN [2]: 6.1 G/DL and 6.53 G/DL
URIC ACID [2]: 1.06 mg/dL and 1.95 mg/dL
ABSOLUTE BASOPHIL [3]: 130 cells/µL
ABSOLUTE EOSINOPHIL [3]: 140 cells/µL
ABSOLUTE LYMPHOCYTE [3]: 13500 cells/µL
ABSOLUTE MONOCYTE [3]: 400 cells/µL
ABSOLUTE SEGMENTED NEUTROPHIL [3]: 2330 cells/µL
HEMATOCRIT [3]: 45.98%
HEMOGLOBIN [3]: 15.17 G/DL
MEAN CORPUSCULAR VOLUME [3]: 59.4 fL
NEUTROPHIL [3]: 14.14%
ABSOLUTE BASOPHIL [4]: 91 cells/µL
ABSOLUTE EOSINOPHIL [4]: 110 cells/µL
ABSOLUTE LYMPHOCYTE [4]: 9910 cells/µL
ABSOLUTE MONOCYTE [4]: 210 cells/µL
ABSOLUTE SEGMENTED NEUTROPHIL [4]: 1560 cells/µL
BASOPHIL [4]: 0.77%
EOSINOPHIL [4]: 0.92%
ERYTHROCYTE COUNT [4]: 8.21 x10E6/uL
HEMATOCRIT [4]: 47.53%
HEMOGLOBIN [4]: 15.65 G/DL
LEUKOCYTE COUNT [4]: 11.91 x10E3/uL
LYMPHOCYTE [4]: 83.34%
MEAN CORPUSCULAR HEMOGLOBIN [4]: 19.07 pg
MEAN CORPUSCULAR HEMOGLOBIN CONCENTRATION [4]: 32.93 G/DL
MEAN CORPUSCULAR VOLUME [4]: 57.9 fL
MONOCYTE [4]: 1.68%
NEUTROPHIL [4]: 12.97%
PLATELET COUNT [4]: 1323.8 x10E3/uL
ALBUMIN [5]: 3.66 G/DL
CARBON DIOXIDE [5]: 25 mmol/L
CHLORIDE [5]: 107 MEQ/L
CREATINE PHOSPHOKINASE [5]: 410.25 u/L
SODIUM [5]: 149.2 MEQ/L
URIC ACID [5]: 0.94 mg/dL
ALANINE AMINOTRANSFERASE [6]: 30 u/L
ALBUMIN [6]: 3.71 G/DL
ALKALINE PHOSPHATASE [6]: 186.8 u/L
ASPARTATE AMINOTRANSFERASE [6]: 78.2 u/L
BLOOD UREA NITROGEN [6]: 14.2 mg/dL
CHOLESTEROL [6]: 44.9 mg/dL
CREATINE PHOSPHOKINASE [6]: 334.3 u/L
CREATININE [6]: 0.6 mg/dL
GLUCOSE [6]: 147.2 mg/dL
LACTATE DEHYDROGENASE [6]: 123.1 u/L
LIPASE [6]: 9.6 u/L
PHOSPHORUS [6]: 10.01 mg/dL
POTASSIUM [6]: 6.57 MEQ/L
SODIUM [6]: 149.5 MEQ/L
TOTAL BILIRUBIN [6]: 0.21 mg/dL
TOTAL PROTEIN [6]: 6.66 G/DL
URIC ACID [6]: 1.26 mg/dL
ABSOLUTE BASOPHIL [7]: 120 cells/µL
ABSOLUTE EOSINOPHIL [7]: 150 cells/µL
ABSOLUTE LYMPHOCYTE [7]: 10100 cells/µL
ABSOLUTE MONOCYTE [7]: 250 cells/µL
ABSOLUTE SEGMENTED NEUTROPHIL [7]: 2470 cells/µL
